Columns and labels:
[1] = system: HuM2e antibody 23K12; format: binding, human
[2] = system: anti-M2 human monoclonal antibody Z3G1; format: binding

| Substance | Signal (peptides that bind to 23K21 and 8I10) [1] | Signal (peptides that show specific binding to Z3G1) [2] | Signal (peptides that bind to Z3G1) [2] |
| --- | --- | --- | --- |
| 645 (SLLTEVVTPIRNEWGCRCNDSSD; epitope peptide) [compound 645] | 763 | 1492 |  |
| 293 (CSLLTEVGMSLLTEV; epitope peptide) [compound 293] | 2039 |  | 2827 |
| 636 (SLLTEVETPIRNEIGCRCNDSSD; epitope peptide) [compound 636] | 768 | 2402 |  |
| 586 (SLLTEVETPIRNEWGCRCNISSD; epitope peptide) [compound 586] | 851 |  | 2517 |
| 627 (SLLTEVETPIRIEWGCRCNDSSD; epitope peptide) [compound 627] | 789 | 2444 |  |
| 329 (SLLTEVGSCLCEC; epitope peptide) [compound 329] | 1708 | 2558 |  |
| 371 (MSLCTEVGMSLLTEV; epitope peptide) [compound 371] | 1468 |  | 2691 |
| 651 (SLLTEVETPIRNEWGCRCHDSSD; epitope peptide) [compound 651] | 758 |  | 2350 |
| 336 (SLLCEVGSLLTEV; epitope peptide) [compound 336] | 1674 | 2475 |  |
| 563 (SLLTEVETPIRNEWGGRCNDSSD; epitope peptide) [compound 563] | 887 | 2270 |  |
| 720 (SLLTEVETPIINEWGCRCNDSSD; epitope peptide) [compound 720] | 699 | 2262 |  |
| 503 (SLLTEVETPIRNEWGCWCNDSSD; epitope peptide) [compound 503] | 1061 | 2437 |  |
| 534 (SLLTEVEKPIRNEWGCRCNDSSD; epitope peptide) [compound 534] | 963 | 2505 |  |
| 512 (SLLTEVETPIRNQWGCRCNDSSD; epitope peptide) [compound 512] | 1039 | 2402 |  |
| 700 (SLLTEVETSIRNEWGCRCNDSSD; epitope peptide) [compound 700] | 715 | 2151 |  |
| 409 (SLLTEVETPIRNEWGCRCNDKSD; epitope peptide) [compound 409] | 898 |  | 2484 |
| 291 (MSLLTEVGMCLCTCV; epitope peptide) [compound 291] | 2110 |  | 2842 |
| 607 (SLLTEVESPIRNEWGCRCNDSSD; epitope peptide) [compound 607] | 817 | 2156 |  |
| 713 (SLLTEVETPIRNEWGQRCNDSSD; epitope peptide) [compound 713] | 705 | 2369 |  |
| 213 (CETPIRNEWGSRSNDSCSLLTEVETC; epitope peptide) [compound 213] | 971 | 1997 |  |
| 623 (SLLTEVETCIRNEWGCRCNDSSD; epitope peptide) [compound 623] | 800 | 1992 |  |
| 421 (SLLTEVETPIRNEWGCRCNDSED; epitope peptide) [compound 421] | 944 |  | 2527 |
| 682 (SLLTEVETPIRNEWGSRCNDSSD; epitope peptide) [compound 682] | 729 | 2346 |  |
| 524 (SLLTEVETPIDNEWGCRCNDSSD; epitope peptide) [compound 524] | 1001 | 2337 |  |
| 626 (SLLTEVETPIRNEWGCRCYDSSD; epitope peptide) [compound 626] | 791 |  | 2385 |

| Substance | Signal (peptides that bind to 23K21 and 8I10) [1] | Signal (peptides that show specific binding to Z3G1) [2] | Signal (peptides that bind to Z3G1) [2] |
| --- | --- | --- | --- |
| 321 (ALLTEVETPIRNEWGCRCNDSSD; epitope peptide) [compound 321] | 1794 | 2225 |  |
| 408 (SLLTEVETPIRNEWGCRCNDISD; epitope peptide) [compound 408] | 962 |  | 2527 |
| 580 (SLCTEVGCSLLTEV; epitope peptide) [compound 580] | 858 | 2382 |  |
| 500 (SCLTEVGSLLTEV; epitope peptide) [compound 500] | 1066 | 1610 |  |
| 447 (SLLTEVETPIRNEWGCRCNDS; epitope peptide) [compound 447] | 817 |  | 2348 |
| 640 (SLLTEVETPIRNKWGCRCNDSSD; epitope peptide) [compound 640] | 765 | 2402 |  |
| 465 (SLLTEVETPIRNEWGCRCNKSSD; epitope peptide) [compound 465] | 1254 |  | 2597 |
| 621 (SLLTEVEFPIRNEWGCRCNDSSD; epitope peptide) [compound 621] | 805 | 2297 |  |
| 685 (SLLTEVETPIRNVWGCRCNDSSD; epitope peptide) [compound 685] | 728 | 2281 |  |
| 552 (SLLTEVETPIRNEWGCYCNDSSD; epitope peptide) [compound 552] | 913 | 2397 |  |
| 698 (SLLTEVETPIRDEWGCRCNDSSD; epitope peptide) [compound 698] | 716 | 2187 |  |
| 699 (SLLTEVETPIRNEWGCRYNDSSD; epitope peptide) [compound 699] | 716 |  | 2169 |
| 292 (CSLLTEVGSLLTEC; epitope peptide) [compound 292] | 2094 | 2213 |  |
| 339 (MSLLTECGMSLLTEV; epitope peptide) [compound 339] | 1658 |  | 2170 |
| 559 (SLLTEVETAIRNEWGCRCNDSSD; epitope peptide) [compound 559] | 895 | 2415 |  |
| 646 (SLLTEVEGPIRNEWGCRCNDSSD; epitope peptide) [compound 646] | 763 | 2341 |  |
| 647 (SLLTEVETPIRNEWGHRCNDSSD; epitope peptide) [compound 647] | 763 | 2113 |  |
| 628 (SLLTEVETPIRNEWGCRCMDSSD; epitope peptide) [compound 628] | 786 |  | 2470 |
| 294 (MSCLCECGMSLLTEV; epitope peptide) [compound 294] | 2039 |  | 1006 |
| 413 (SLLTEVETPIRNEWGCRCNDPSD; epitope peptide) [compound 413] | 797 |  | 2450 |
| 372 (CSLLTEVGMSCLTEV; epitope peptide) [compound 372] | 1466 |  | 2554 |
| 666 (SLLTEVETPIRNAWGCRCNDSSD; epitope peptide) [compound 666] | 743 | 2334 |  |
| 412 (SLLTEVETPIRNEWGCRCNDNSD; epitope peptide) [compound 412] | 708 |  | 2389 |
| 508 (MSLCTEVGCSLLTEV; epitope peptide) [compound 508] | 1049 |  | 2832 |
| 706 (SLLTEVETPIRNEWGCRCADSSD; epitope peptide) [compound 706] | 712 |  | 2329 |

Source: patent US8932597B2 (priority 2008, dated 2015)
